Reference: patent US20190152946A1, “Novel Compounds” (GlaxoSmithKline Intellectual Property Development Limited, priority 2016, published 2019)

How the values were obtained:
GAK = molecular target: T1, GAK (Homo sapiens, UniProt O14976); assay: Expression proteomics in THP-1 cells, GAK level; assay type: cell-based; conditions: GAK protein log2 fold change, 24 h, 1.0 μM
T1 construct: endogenous in cells; host or cells: THP-1
T1 sequence (O14976 1-1311): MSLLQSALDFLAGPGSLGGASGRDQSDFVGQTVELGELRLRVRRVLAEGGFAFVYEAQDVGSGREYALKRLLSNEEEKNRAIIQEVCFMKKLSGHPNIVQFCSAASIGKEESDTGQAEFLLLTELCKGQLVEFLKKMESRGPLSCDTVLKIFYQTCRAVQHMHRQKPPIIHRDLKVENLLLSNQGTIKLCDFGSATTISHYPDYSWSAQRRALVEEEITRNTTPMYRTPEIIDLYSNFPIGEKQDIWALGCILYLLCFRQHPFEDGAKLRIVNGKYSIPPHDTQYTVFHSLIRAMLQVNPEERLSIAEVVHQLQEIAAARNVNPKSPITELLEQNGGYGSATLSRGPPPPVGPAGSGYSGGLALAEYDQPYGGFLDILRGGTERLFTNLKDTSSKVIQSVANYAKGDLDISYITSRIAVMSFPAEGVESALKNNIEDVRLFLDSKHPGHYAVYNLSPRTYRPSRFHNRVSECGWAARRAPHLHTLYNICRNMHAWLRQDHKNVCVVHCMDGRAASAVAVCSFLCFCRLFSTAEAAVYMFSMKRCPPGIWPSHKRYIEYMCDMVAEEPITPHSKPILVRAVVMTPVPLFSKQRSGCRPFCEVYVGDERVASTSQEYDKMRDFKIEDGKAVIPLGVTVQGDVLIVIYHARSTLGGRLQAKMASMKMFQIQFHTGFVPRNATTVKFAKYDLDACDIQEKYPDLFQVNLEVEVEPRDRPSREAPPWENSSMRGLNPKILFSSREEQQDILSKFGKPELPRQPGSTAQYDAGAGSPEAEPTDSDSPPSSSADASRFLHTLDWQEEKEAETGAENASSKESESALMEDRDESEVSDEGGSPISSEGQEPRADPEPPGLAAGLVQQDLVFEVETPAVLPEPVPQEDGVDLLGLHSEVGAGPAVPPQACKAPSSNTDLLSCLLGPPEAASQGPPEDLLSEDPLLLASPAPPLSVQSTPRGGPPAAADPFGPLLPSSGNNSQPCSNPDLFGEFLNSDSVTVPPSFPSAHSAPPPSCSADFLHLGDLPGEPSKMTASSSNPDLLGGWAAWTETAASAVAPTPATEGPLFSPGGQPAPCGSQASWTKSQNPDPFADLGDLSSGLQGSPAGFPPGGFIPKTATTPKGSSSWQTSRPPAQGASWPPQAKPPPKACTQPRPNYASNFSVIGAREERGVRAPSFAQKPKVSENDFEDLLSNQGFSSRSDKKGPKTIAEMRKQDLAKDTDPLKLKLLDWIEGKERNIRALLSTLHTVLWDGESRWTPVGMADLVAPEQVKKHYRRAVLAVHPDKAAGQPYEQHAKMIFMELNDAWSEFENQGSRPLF
Protocol: (§1) THP-1 cells were seeded at a concentration of 3×10^6 cells in T175 flasks with 60 mL growth medium (RPM11640+10% FBS). […] of a 10× compound solution prepared in growth medium (DMSO), IAP PROTAC) was added and the cells were treated for the indicated time points (6 or 24 h) at 37° C., 5% CO2. For harvesting the cells were collected into falcon tubes on ice, centrifuged and washed twice in cold PBS (Life technologies). After the last washing step the supernatant was removed and the pellets were snap-frozen in liquid N2 and stored at −80° C. and lysed in 2% SDS for 3 min at 95° C. in a thermomixer (Thermo Fisher Scientific), followed by digestion of DNA with Benzonase at 37° C. for 1.5 h. Lysate was cleared by centrifugation an protein concentration in supernatant was determined by BCA assay.
(§2) Leukemia 25, 89-100 (2011).
(§3) Samples were dried in vacuo and resuspended in 0.05% trifluoroacetic acid in water. […]
(§4) Reporter ion intensities were read from raw data and multiplied with ion accumulation times (the unit is milliseconds) so as to yield a measure proportional to the number of ions;
(§5) Nat Biotech 29, 255-265 (2011). this measure is referred to as ion area Savitski, M. M. et al. Delayed Fragmentation and Optimized Isolation Width Settings for Improvement of Protein Identification and Accuracy of Isobaric Mass Tag Quantification on Orbitrap-Type Mass Spectrometers. […]

RPS6KA1 = molecular target: T2, RPS6KA1 (Homo sapiens, UniProt Q15418); assay: Expression proteomics in THP-1 cells, RPS6KA1 level; assay type: cell-based; conditions: RPS6KA1 protein log2 fold change, 24 h, 1.0 μM
T2 construct: endogenous in cells; host or cells: THP-1
T2 sequence (Q15418 whole entry): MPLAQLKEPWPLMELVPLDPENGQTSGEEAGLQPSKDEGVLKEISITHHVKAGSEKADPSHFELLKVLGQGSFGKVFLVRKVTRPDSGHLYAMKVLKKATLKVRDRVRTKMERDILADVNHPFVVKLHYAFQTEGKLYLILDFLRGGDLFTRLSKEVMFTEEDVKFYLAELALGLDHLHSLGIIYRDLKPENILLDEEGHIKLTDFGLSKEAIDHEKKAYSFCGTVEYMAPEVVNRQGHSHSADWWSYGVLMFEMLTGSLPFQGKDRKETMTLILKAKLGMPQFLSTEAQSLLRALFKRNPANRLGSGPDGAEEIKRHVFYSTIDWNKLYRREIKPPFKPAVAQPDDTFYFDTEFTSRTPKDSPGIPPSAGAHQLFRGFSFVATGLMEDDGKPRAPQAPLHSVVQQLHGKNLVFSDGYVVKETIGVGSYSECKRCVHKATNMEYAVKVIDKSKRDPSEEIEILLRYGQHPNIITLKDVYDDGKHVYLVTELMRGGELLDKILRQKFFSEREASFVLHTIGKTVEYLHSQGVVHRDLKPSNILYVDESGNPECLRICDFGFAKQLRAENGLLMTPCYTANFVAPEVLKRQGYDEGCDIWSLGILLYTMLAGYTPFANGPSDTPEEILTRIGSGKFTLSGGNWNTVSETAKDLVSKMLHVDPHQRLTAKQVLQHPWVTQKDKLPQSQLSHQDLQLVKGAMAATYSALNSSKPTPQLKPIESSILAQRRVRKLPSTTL
Protocol: as §1, §2, §3, §4, §5

CNC(=O)c1ccccc1Nc1nc(Nc2ccc(N3CCN(CCOCCOCCOCCOc4ccc5c(c4)CN(C(=O)[C@@H](NC(=O)[C@H](C)NC)C(C)(C)C)[C@H](C(=O)N[C@@H]4CCCc6ccccc64)C5)CC3)cc2)ncc1Cl [IAP, (S)-7-(2-(2-(2-(2-(4-(4-((5-Chloro-4-((2-(methylcarbamoyl)phenyl)amino)pyrimidin-2-yl)amino)phenyl)piperazin-1-yl)ethoxy)ethoxy)ethoxy)ethoxy)-2-((S)-3,3-dimethyl-2-((S)-2-(methylamino)propanamido)butanoyl)-N-((R)-1,2,3,4-tetrahydronaphthalen-1-yl)-1,2,3,4-tetrahydroisoquinoline-3-carboxamide]
log2fc_IAP_24 h_1.0 μM_n1 (GAK; replicate n1): −2.02 | log2fc_IAP_24 h_1.0 μM_n2 (GAK; replicate n2): −2.39 | log2fc_IAP_24 h_1.0 μM_n1 (RPS6KA1; replicate n1): −1.21 | log2fc_IAP_24 h_1.0 μM_n2 (RPS6KA1; replicate n2): −1.24
